Legend:
Experiment in all cases: relative viability (nuclei count vs DMSO), 5 days (fraction); higher = more cells survive
[1] = compound: COCC[n+]1c2c(n(Cc3cnccn3)c1C)C(=O)c1ccccc1C2=O [YM155] + CS(=O)(=O)CCNCc1ccc(-c2ccc3ncnc(Nc4ccc(OCc5cccc(F)c5)c(Cl)c4)c3c2)o1 [Lapatinib] (partner 2 µM)
Summary of the method: (§1)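 For relative viability, nuclei counts in treated wells were divided by those in vehicle wells. Lung cancer cell lines had been pin-tool dosed in 1536-well plates the day after seeding and cultured for 5 days, then fixed and stained in one step (final 0.05% Triton X-100, 1% formaldehyde, 1 ug/ml Hoechst) and imaged at 4×. Doses were one drug alone or a fixed anchor-drug dose plus five library-drug doses (not always all listed) in √10 steps, and values are duplicate-plate medians.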

[2] = compound: COCC[n+]1c2c(n(Cc3cnccn3)c1C)C(=O)c1ccccc1C2=O [YM155] + NC(=O)Nc1cc(-c2cccc(F)c2)sc1C(=O)N[C@H]1CCCNC1 [AZD7762] (partner 0.2 µM)
Summary of the method: as §1

[3] = compound: CC(C)(C)c1cc(NC(=O)Nc2ccc(-c3cn4c(n3)sc3cc(OCCN5CCOCC5)ccc34)cc2)no1 [Quizartinib] + COc1cccc2cc(-c3nc([C@H]4CC[C@H](C(=O)O)CC4)n4ncnc(N)c34)[nH]c12 [OSI-027] (partner 0.5 µM)
Summary of the method: as §1

[4] = compound: COCC[n+]1c2c(n(Cc3cnccn3)c1C)C(=O)c1ccccc1C2=O [YM155] + CCNC(=O)c1noc(-c2cc(C(C)C)c(O)cc2O)c1-c1ccc(CN2CCOCC2)cc1 [Luminespib] (partner 0.01 µM)
Summary of the method: as §1

Cell Line | relative viability ([1]; first compound 0.002 µM) | relative viability ([1]; first compound 0.006325 µM) | relative viability ([1]; first compound 0.02 µM) | relative viability ([1]; first compound 0.06325 µM) | relative viability ([2]; first compound 0.002 µM) | relative viability ([2]; first compound 0.006325 µM) | relative viability ([2]; first compound 0.02 µM) | relative viability ([2]; first compound 0.06325 µM) | relative viability ([3]; first compound 0.001 µM) | relative viability ([3]; first compound 0.003162 µM) | relative viability ([3]; first compound 0.01 µM) | relative viability ([3]; first compound 0.03162 µM) | relative viability ([3]; first compound 0.1 µM) | relative viability ([4]; first compound 0.002 µM) | relative viability ([4]; first compound 0.006325 µM) | relative viability ([4]; first compound 0.02 µM) | relative viability ([4]; first compound 0.06325 µM)
HCC-366 | 1.07 | 0.986 | 1.01 | 0.625 | 0.315 | 0.28 | 0.327 | 0.273 | 0.705 | 0.866 | 0.796 | 0.831 | 0.747 | – | – | – | –
HCC-827 | 0.169 | 0.198 | 0.177 | 0.191 | 0.224 | 0.293 | 0.239 | 0.241 | 0.749 | 0.77 | 0.945 | 0.798 | 0.79 | 0.662 | 0.451 | 0.403 | 0.586
HOP-62 | 0.831 | 1.02 | 0.973 | 0.961 | 0.484 | 0.427 | 0.902 | 0.43 | 0.75 | 0.769 | 1.03 | 0.87 | 0.847 | 0.918 | 0.907 | 0.938 | 0.906
IA-LM | 0.781 | 0.741 | 0.652 | 0.283 | – | – | – | – | – | – | – | – | – | – | – | – | –
LCLC-103H | – | – | – | – | 0.752 | 0.821 | 0.832 | 0.781 | 0.432 | 0.503 | 0.422 | 0.475 | 0.487 | 0.927 | 0.832 | 0.846 | 1.04
NCI-H441 | – | – | – | – | 0.947 | 1.23 | 1.09 | 0.246 | 0.424 | 0.669 | 0.564 | – | 0.693 | 0.327 | 0.394 | 0.259 | 0.301
NCI-H520 | 0.801 | 0.733 | 1.16 | 1.02 | – | – | – | – | 0.245 | 0.231 | 0.292 | 0.233 | 0.272 | 0.238 | 0.266 | 0.215 | 0.233
NCI-H522 | – | – | – | – | 0.699 | 0.854 | 0.961 | 0.991 | 0.649 | 0.764 | 0.694 | 0.702 | 0.762 | 1.21 | 1.1 | 1.04 | 1.28
NCI-H661 | 0.522 | 0.575 | 0.575 | 0.421 | – | – | – | – | 0.66 | 0.594 | 0.692 | 0.693 | 0.721 | 0.841 | 0.948 | 0.927 | 0.393
NCI-H1299 | 0.949 | 0.962 | 0.908 | 0.176 | – | – | – | – | – | – | – | – | – | – | – | – | –
NCI-H1563 | 0.924 | 0.994 | 0.986 | 1.05 | – | – | – | – | 0.734 | 0.701 | 0.78 | 0.696 | 0.667 | 0.554 | 0.455 | 0.542 | 0.555
NCI-H1648 | – | – | – | – | – | 0.689 | 0.557 | 0.634 | – | – | 0.258 | 0.253 | 0.259 | – | – | – | –
NCI-H1650 | 0.674 | 0.787 | 0.988 | 0.488 | – | – | – | – | 0.414 | 0.738 | 0.598 | – | 0.494 | 0.181 | 0.197 | 0.175 | 0.228
NCI-H1703 | 1.11 | 0.982 | 0.452 | 0.179 | 0.0937 | 0.114 | 0.138 | 0.132 | – | – | – | – | – | – | – | – | –
NCI-H2009 | 0.888 | 0.893 | 0.946 | 0.119 | – | – | – | – | 0.546 | 0.614 | 0.62 | 0.664 | 0.724 | 1.08 | 0.986 | 1.04 | 0.476
NCI-H2023 | 0.884 | 0.827 | 0.867 | 0.49 | – | – | – | – | 0.363 | 0.469 | 0.367 | – | 0.355 | 0.771 | 0.678 | 0.682 | 0.349
NCI-H2228 | 0.856 | 1.16 | 0.988 | 0.998 | – | – | – | – | 0.616 | 0.557 | 0.679 | 0.431 | 0.539 | 0.16 | 0.148 | 0.104 | 0.144
NCI-H2342 | – | – | – | – | 0.612 | 0.379 | 0.515 | 0.383 | 0.664 | 0.592 | 0.603 | 0.68 | 0.621 | 0.721 | 0.788 | 0.738 | 0.746
SK-LU-1 | 0.835 | 0.85 | 0.971 | 0.653 | – | – | – | – | 0.316 | 0.312 | 0.377 | 0.35 | 0.37 | 0.183 | 0.185 | 0.21 | 0.223
SK-MES-1 | 0.468 | 0.476 | 0.442 | 0.473 | – | – | – | – | 0.538 | 0.582 | 0.658 | – | 0.622 | 0.437 | 0.359 | 0.234 | 0.169
SW 900 | – | – | – | – | – | 0.543 | 0.825 | 0.64 | 0.533 | 0.508 | – | 0.512 | 0.569 | 0.179 | 0.188 | 0.164 | 0.177
SW 1573 | 1.1 | 1.01 | 1.21 | 0.858 | – | – | – | – | 0.423 | 0.59 | 0.573 | – | 0.666 | 0.246 | 0.179 | 0.17 | 0.0748
UMC-11 | 0.846 | 0.964 | 0.994 | 0.93 | – | – | – | – | – | 0.383 | 0.46 | 0.466 | 0.467 | 0.932 | 1.08 | 1 | 1.11
